Read-outs that look alike come from different tables or passages of the source.
Experiments:
[1] = In vitro physiological stability and formation of parent compound in rat plasma; format: in vitro ADME; settings: 37 °C, up to 3 h
Method: Analysis was performed by using a Waters Alliance HPLC system (2695 pump, and 2489 PDA detector) with the following chromatographic parameters: wavelength, 278 nm; injection volume, 20 μL; run time, 20 min. The chromatographic separation was performed on an Phecda C18 (4.6 mm × 250 mm, 5 μm) column with a gradient elution of methanol and deionized water. Flow rate was 1.0 mL/min at 30 °C.
Rat plasma was harvested from in-house rats. Fresh blood was collected from the male rat using a retro-orbital bleeding method in a tube containing heparin (100 IU/mL blood). After the collection of blood, plasma was separated from the blood by centrifugation at 5,000 rpm for 10 min. The supernatant plasma was separated and utilized for the further experiment.
The test compound in aqueous solution 30 mM (20 μL) was dissolved in rat plasma (980 μL). Immediately after addition (0 min), aliquots (100 μL) were removed and added to ice cold dissolvent (ethanol-ethyl acetate = 1:4 v/v, 1 mL) and mixed well by vortexing for 2 min. The mixture was centrifuged at 12,000 rpm for 10 min, and the supernatant was diluted with methanol and analyzed by HPLC. After 0 min, the remaining sample was incubated at 37 °C for 1, 2, and 3 h. […]

[2] = parameters: method as in earlier work; settings: cited from earlier work; for AUC0–t / AUC0–∞ / Cmax / Tmax / t1/2: rat

Cc1nc(CO)c(C)nc1CO [1a, Liguzinediol]
metabolic stability [1]: fairly stable | AUC0–t ([2]; LZDO 10 mg·kg^−1 i.g.): 16740 ± 8900 ng·h/mL | AUC0–∞ ([2]; LZDO 10 mg·kg^−1 i.g.): 17080 ± 8990 ng·h/mL | Cmax ([2]; LZDO 10 mg·kg^−1 i.g.): 8580 ± 2660 ng/mL | Tmax ([2]; LZDO 10 mg·kg^−1 i.g.): 0.29 ± 0.10 h | t1/2 ([2]; LZDO 10 mg·kg^−1 i.g.): 2.21 ± 1.11 h | AUC0–t ([2]; LZDO 20 mg·kg^−1 i.g.): 34840 ± 24640 ng·h/mL | AUC0–∞ ([2]; LZDO 20 mg·kg^−1 i.g.): 35930 ± 24080 ng·h/mL | Cmax ([2]; LZDO 20 mg·kg^−1 i.g.): 17020 ± 5500 ng/mL | Tmax ([2]; LZDO 20 mg·kg^−1 i.g.): 0.29 ± 0.10 h | t1/2 ([2]; LZDO 20 mg·kg^−1 i.g.): 2.57 ± 2.14 h | AUC0–t ([2]; LZDO 50 mg·kg^−1 i.g.): 92850 ± 64100 ng·h/mL | AUC0–∞ ([2]; LZDO 50 mg·kg^−1 i.g.): 94820 ± 66880 ng·h/mL | Cmax ([2]; LZDO 50 mg·kg^−1 i.g.): 49330 ± 10500 ng/mL | Tmax ([2]; LZDO 50 mg·kg^−1 i.g.): 0.29 ± 0.10 h | t1/2 ([2]; LZDO 50 mg·kg^−1 i.g.): 1.78 ± 0.57 h | half-life ([2]; after intragastric administration, rats): about 2 h
